Molecular target: human Nav1.5 (Homo sapiens (Human), UniProt Q14524)
Assay: Qpatch automated patch-clamp, peak Nav1.5 current inhibition, 5-Hz AF-like assay (holding potential -85 mV)
Format: cell-based
Conditions: CHO-K1 cells stably expressing human Nav1.5, Table 6, Examples 63-90, read-out: Nav1.5 IC50 (5 Hz, AF Rate)
Description: Electrophysiology was used to measure the ionic currents in isolated living cells using automated patch-clamp recording, performed using an automated patch-clamp machine called Qpatch (Sophion Bioscience). Two different assay conditions were used to identify compounds with atrial-selective potential. The 5-Hz AF-like assay has more depolarized holding potential at −85 mV to mimic atrial resting membrane potential (RMP) and was used to identify compounds of strong rate-dependence. Active, rate-dependent compounds were then screened at 1 Hz (i.e., sinus rate) at the holding potential of −100 mV to mimic the ventricular scenario and help identify compounds with the largest potency separation or attenuation from the 5-Hz AF-like assay. Such compounds have the potential for treating AF without the QRS liability inherent to Class Ic drugs.
The sodium current conducted through a cell (via Nav1.5) or electrical signals were processed through a low-pass filter at 5 KHz, re-digitalized and acquired at 20 kHz. Series resistance was not compensated and leak subtraction was performed.
1 to 3 million Chinese Hamster Ovary cells (also known as CHO-K1) stably expressing human Nav1.5 were seeded into […] culture flasks with 25 mL medium (consisting of Gibco Dulbecco's Modified Eagle Medium as a base medium with 1% MEM non-essential amino acids, 400 μg/mL Geneticin, 5 μg/mL puromycin and 10% fetal bovine serum) 48-72 hours prior to the experiments. On the day of the experiment, cells were washed once with phosphate-buffered saline (also known as PBS; Gibco) detached with Detachin™ (Genlantis), and re-suspended in CHO—S-SFM II media (Gibco) at 200,000 cells/mL. The CHO—S-SFM II was replaced with assay solutions prior to the assays. Whole-cell currents were recorded at room temperature in the whole-cell configuration. The external aqueous assay solution (pH=7.4; Osm=307-315) contained the following (the concentration for each component is expressed in parentheses in mM): NaCl (140 mM), KCl (4 mM), CaCl2) (2 mM), MgCl2 (1 mM), 4-(2-hydroxyethyl)-1-piperazineethanesulfonic acid, also known as HEPES (10 mM), and glucose (5 mM). The internal aqueous assay solution (pH=7.2; Osm=292-295) contained the following (the concentration for each component is expressed in parentheses in mM): CsF (110 mM), CsCl (10 mM), NaCl (10 mM), HEPES (10 mM), and ethylene glycolbis(β-aminoethyl ether)-N,N,N′,N′-tetraacetic acid, also known as EGTA (10 mM).
To assess peak Nav1.5 current inhibition in an atrial fibrillation-mimicking condition (Nav1.5 IC50 (5 Hz, AF-like rate) (μM)), compounds were first prepared at 10 mM in DMSO, and cells were pre-incubated with test compounds at each concentration for 3 min. in an ascending order of 0, 0.37, 1.1, 3.3, 10 and 30 μM. An atrial action potential-like protocol consisting of a voltage ramp (+10 mV to −85 mV for a 150 ms duration and a holding potential at −85 mV) was then applied to cells at 5 Hz for 12 s until no further current change or inhibition was observed. The percent inhibition (expressed as ([Iafter compound treatment/Ibefore compound treatment]×100%) is calculated by normalizing the peak current amplitude at the last pulse of each of the 6 compound concentrations by the amplitude before exposure to the test compound. The compiled data was further normalized by vehicle control (DMSO) to account for Nav1.5 current run-down, and IC50 was calculated by Matlab (MathWorks, USA).

human Nav1.5, sequence (Q14524 whole entry): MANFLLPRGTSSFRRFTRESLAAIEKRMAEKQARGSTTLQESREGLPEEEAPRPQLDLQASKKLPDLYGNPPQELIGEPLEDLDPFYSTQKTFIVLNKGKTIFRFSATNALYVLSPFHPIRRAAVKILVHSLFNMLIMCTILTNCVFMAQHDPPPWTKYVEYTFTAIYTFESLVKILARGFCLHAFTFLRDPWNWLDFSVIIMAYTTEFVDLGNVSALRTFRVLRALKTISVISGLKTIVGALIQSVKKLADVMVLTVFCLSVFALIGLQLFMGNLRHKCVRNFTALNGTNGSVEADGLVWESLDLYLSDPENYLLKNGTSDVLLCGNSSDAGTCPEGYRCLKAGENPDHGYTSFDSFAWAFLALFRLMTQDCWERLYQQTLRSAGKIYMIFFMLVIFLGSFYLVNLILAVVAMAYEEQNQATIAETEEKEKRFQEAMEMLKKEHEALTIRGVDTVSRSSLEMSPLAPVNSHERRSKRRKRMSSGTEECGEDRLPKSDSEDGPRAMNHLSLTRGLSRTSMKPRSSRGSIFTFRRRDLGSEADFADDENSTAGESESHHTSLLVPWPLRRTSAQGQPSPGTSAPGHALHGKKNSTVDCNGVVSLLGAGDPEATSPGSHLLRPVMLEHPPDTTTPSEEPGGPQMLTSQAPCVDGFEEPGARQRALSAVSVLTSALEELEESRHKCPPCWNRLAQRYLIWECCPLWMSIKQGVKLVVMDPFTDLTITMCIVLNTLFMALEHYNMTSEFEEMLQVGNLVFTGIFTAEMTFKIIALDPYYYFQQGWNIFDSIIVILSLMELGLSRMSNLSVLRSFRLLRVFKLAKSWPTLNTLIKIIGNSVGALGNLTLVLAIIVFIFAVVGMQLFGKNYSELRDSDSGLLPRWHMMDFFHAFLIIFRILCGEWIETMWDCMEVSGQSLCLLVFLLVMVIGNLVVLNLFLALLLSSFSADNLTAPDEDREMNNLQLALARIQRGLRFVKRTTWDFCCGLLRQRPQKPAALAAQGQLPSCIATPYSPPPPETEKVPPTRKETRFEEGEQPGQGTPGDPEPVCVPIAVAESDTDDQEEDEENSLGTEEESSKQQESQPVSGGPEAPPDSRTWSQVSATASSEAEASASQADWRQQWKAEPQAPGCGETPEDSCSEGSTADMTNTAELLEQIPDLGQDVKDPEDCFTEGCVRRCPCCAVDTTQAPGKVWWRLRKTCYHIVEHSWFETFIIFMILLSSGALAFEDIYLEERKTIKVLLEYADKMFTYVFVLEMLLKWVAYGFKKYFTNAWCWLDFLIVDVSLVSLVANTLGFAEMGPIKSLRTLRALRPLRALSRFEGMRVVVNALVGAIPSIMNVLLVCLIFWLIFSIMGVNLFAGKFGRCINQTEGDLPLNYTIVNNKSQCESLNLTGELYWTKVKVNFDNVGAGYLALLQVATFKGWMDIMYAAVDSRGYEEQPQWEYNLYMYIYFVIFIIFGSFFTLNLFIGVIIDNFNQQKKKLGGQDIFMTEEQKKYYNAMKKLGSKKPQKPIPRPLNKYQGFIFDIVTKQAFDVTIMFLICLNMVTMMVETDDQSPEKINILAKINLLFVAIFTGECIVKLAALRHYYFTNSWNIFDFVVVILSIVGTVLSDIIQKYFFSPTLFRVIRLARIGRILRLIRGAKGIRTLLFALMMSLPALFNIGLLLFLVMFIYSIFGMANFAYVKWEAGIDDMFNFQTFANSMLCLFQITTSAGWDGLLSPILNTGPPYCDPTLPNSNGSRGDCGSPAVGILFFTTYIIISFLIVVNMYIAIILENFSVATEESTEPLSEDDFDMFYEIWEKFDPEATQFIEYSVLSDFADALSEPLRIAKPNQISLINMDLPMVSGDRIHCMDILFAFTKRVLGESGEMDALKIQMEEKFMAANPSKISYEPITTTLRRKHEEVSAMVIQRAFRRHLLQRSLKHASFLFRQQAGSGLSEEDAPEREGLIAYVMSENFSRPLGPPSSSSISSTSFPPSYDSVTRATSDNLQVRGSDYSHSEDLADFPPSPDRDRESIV

Molecule	IC50 [µM]
Cc1ccc(F)c(Cn2nnc(-c3cccc([C@@](C)(O)CS(N)(=O)=O)n3)n2)c1Cl [Example 63]	3.8
C[C@](O)(CS(N)(=O)=O)c1cccc(-c2nnn(Cc3cc(F)ccc3Br)n2)n1 [Example 64]	13
C[C@](O)(CS(N)(=O)=O)c1cccc(-c2nnn(Cc3ccc(Br)cc3F)n2)n1 [Example 65]	17
C[C@](O)(CS(N)(=O)=O)c1cccc(-c2nnn(Cc3cccc(Br)c3F)n2)n1 [Example 66]	28
C[C@](O)(CS(N)(=O)=O)c1cccc(-c2nnn(Cc3c(F)cccc3Br)n2)n1 [Example 67]	8.1
Cc1cc(C)c(C)c(Cn2nnc(-c3cccc([C@@](C)(O)CS(N)(=O)=O)n3)n2)c1 [Example 68]	16
Cc1cccc(Cn2nnc(-c3cccc([C@@](C)(O)CS(N)(=O)=O)n3)n2)c1C [Example 69]	11
C[C@](O)(CS(N)(=O)=O)c1cccc(-c2nnn(Cc3cccc(Cl)c3Cl)n2)n1 [Example 70]	22
Cc1ccc(C(C)C)cc1Cn1nnc(-c2cccc([C@@](C)(O)CS(N)(=O)=O)n2)n1 [Example 72]	7.3
C[C@](O)(CS(N)(=O)=O)c1cccc(-c2nnn(Cc3c(F)ccc(Cl)c3F)n2)n1 [Example 73]	19
C[C@](O)(CS(N)(=O)=O)c1cccc(-c2nnn(Cc3cc(C(F)(F)F)ccc3Cl)n2)n1 [Example 74]	21
C[C@](O)(CS(N)(=O)=O)c1cccc(-c2nnn(Cc3cccc(OC(F)(F)F)c3F)n2)n1 [Example 75]	4.8
COc1ccc(F)c(Cn2nnc(-c3cccc([C@@](C)(O)CS(N)(=O)=O)n3)n2)c1 [Example 76]	17

Same assay, conditions: CHO-K1 cells stably expressing human Nav1.5, holding potential -85 mV, Table 5, read-out: Nav1.5 IC50 (5 Hz, AF Rate)

Molecule	IC50 [µM]
3-(6-(1-(2-fluoro-5-(trifluoromethoxy)benzyl)-1H-pyrazol-3-yl)pyridin-2-yl)-3-hydroxy-2-methylbutane-2-sulfonamide [Example 54]	4.2
CCC(O)(CS(N)(=O)=O)c1cccc(-c2ccn(Cc3cc(OC(F)(F)F)ccc3F)n2)n1 (racemic) [Example 35, 2-(6-(1-(2-fluoro-5-(trifluoromethoxy)benzyl)-1H-pyrazol-3-yl)pyridin-2-yl)-2-hydroxybutane-1-sulfonamide]	4
NS(=O)(=O)CC(O)c1cccc(-c2nnn(Cc3cc(OC(F)(F)F)ccc3F)n2)n1 (racemic) [Example 48, 2-(6-(2-(2-fluoro-5-(trifluoromethoxy)benzyl)-2H-tetrazol-5-yl)pyridin-2-yl)-2-hydroxyethane-1-sulfonamide]	5.5
CC(C)(C(O)c1cccc(-c2ccn(Cc3cc(OC(F)(F)F)ccc3F)n2)n1)S(N)(=O)=O (racemic) [Example 53, 1-(6-(1-(2-fluoro-5-(trifluoromethoxy)benzyl)-1H-pyrazol-3-yl)pyridin-2-yl)-1-hydroxy-2-methylpropane-2-sulfonamide]	12
CC(O)(CS(N)(=O)=O)c1cccc(-c2nnn(Cc3cc(OC(F)(F)F)ccc3F)n2)n1 (racemic) [Rac-1 + 2, 2-(6-(2-(2-fluoro-5-(trifluoromethoxy)benzyl)-2H-tetrazol-5-yl)pyridin-2-yl)-2-hydroxypropane-1-sulfonamide]	3.6
CC(O)(CS(N)(=O)=O)c1cccc(-c2nnn(Cc3c(F)ccc4c3OC(F)(F)O4)n2)n1 (racemic) [Rac-3 + 4, 2-hydroxy-2-(6-(2-((2,2,5-trifluorobenzo[d][1,3]dioxol-4-yl)methyl)-2H-tetrazol-5-yl)pyridin-2-yl)propane-1-sulfonamide]	7
CC(O)(CS(N)(=O)=O)c1cccc(-c2nc(Cc3cc(OC(F)(F)F)ccc3F)no2)n1 (racemic) [Rac-57 + 58, 2-(6-(3-(2-fluoro-5-(trifluoromethoxy)benzyl)-1,2,4-oxadiazol-5-yl)pyridin-2-yl)-2-hydroxypropane-1-sulfonamide]	3.7
CC(O)(CS(N)(=O)=O)c1cccc(-c2nnn(Cc3cc(F)ccc3F)n2)n1 (single isomer, unassigned) [Example 17, (R or S)-2-(6-(2-(2,5-difluorobenzyl)-2H-tetrazol-5-yl)pyridin-2-yl)-2-hydroxypropane-1-sulfonamide]	24
CC(O)(CS(N)(=O)=O)c1cccc(-c2nnn(Cc3cc(F)ccc3F)n2)n1 (single isomer, unassigned) [Example 18, (R or S)-2-(6-(2-(2,5-difluorobenzyl)-2H-tetrazol-5-yl)pyridin-2-yl)-2-hydroxypropane-1-sulfonamide]	20
CC(O)(CS(N)(=O)=O)c1cccc(-c2nnn(Cc3cc(OC(F)(F)F)ccc3F)n2)c1 (single isomer, unassigned) [Example 25, (R or S)-2-(3-(2-(2-fluoro-5-(trifluoromethoxy)benzyl)-2H-tetrazol-5-yl)phenyl)-2-hydroxypropane-1-sulfonamide]	5.5
CC(O)(CS(N)(=O)=O)c1cccc(-c2nnn(Cc3cc(OC(F)(F)F)ccc3F)n2)c1 (single isomer, unassigned) [Example 26, (R or S)-2-(3-(2-(2-fluoro-5-(trifluoromethoxy)benzyl)-2H-tetrazol-5-yl)phenyl)-2-hydroxypropane-1-sulfonamide]	1.8
CC(O)(CS(N)(=O)=O)c1cccc(-c2nnn(Cc3cc(OCC(F)(F)F)ccc3F)n2)n1 (single isomer, unassigned) [Example 29, (R or S)-2-(6-(2-(2-fluoro-5-(2,2,2-trifluoroethoxy)benzyl)-2H-tetrazol-5-yl)pyridin-2-yl)-2-hydroxypropane-1-sulfonamide]	0.8
CC(O)(CS(N)(=O)=O)c1cccc(-c2nnn(Cc3cc(OCC(F)(F)F)ccc3F)n2)n1 (single isomer, unassigned) [Example 30, (R or S)-2-(6-(2-(2-fluoro-5-(2,2,2-trifluoroethoxy)benzyl)-2H-tetrazol-5-yl)pyridin-2-yl)-2-hydroxypropane-1-sulfonamide]	1
CC(O)(CS(N)(=O)=O)c1nc(-c2nnn(Cc3cc(OC(F)(F)F)ccc3F)n2)ccc1Cl (single isomer, unassigned) [Example 42, (R or S)-2-(3-chloro-6-(2-(2-fluoro-5-(trifluoromethoxy)benzyl)-2H-tetrazol-5-yl)pyridin-2-yl)-2-hydroxypropane-1-sulfonamide]	12
CC(O)(CS(N)(=O)=O)c1nc(-c2nnn(Cc3cc(OC(F)(F)F)ccc3F)n2)ccc1Cl (single isomer, unassigned) [Example 43, (R or S)-2-(3-chloro-6-(2-(2-fluoro-5-(trifluoromethoxy)benzyl)-2H-tetrazol-5-yl)pyridin-2-yl)-2-hydroxypropane-1-sulfonamide]	8.2
CC(C(O)c1cccc(-c2nnn(Cc3cc(OC(F)(F)F)ccc3F)n2)n1)S(N)(=O)=O (single isomer, unassigned) [Example 49, (JR or 1S,2R or 2S)-1-(6-(2-(2-fluoro-5-(trifluoromethoxy)benzyl)-2H-tetrazol-5-yl)pyridin-2-yl)-1-hydroxypropane-2-sulfonamide]	5.7
CC(C(O)c1cccc(-c2nnn(Cc3cc(OC(F)(F)F)ccc3F)n2)n1)S(N)(=O)=O (single isomer, unassigned) [Example 50, (JR or 1S,2R or 2S)-1-(6-(2-(2-fluoro-5-(trifluoromethoxy)benzyl)-2H-tetrazol-5-yl)pyridin-2-yl)-1-hydroxypropane-2-sulfonamide]	6.6
CC(O)(CS(N)(=O)=O)c1cccc(-c2cnn(Cc3cc(OC(F)(F)F)ccc3F)n2)n1 (single isomer, unassigned) [Example 62, (R or S)-2-(6-(2-(2-fluoro-5-(trifluoromethoxy)benzyl)-2H-1,2,3-triazol-4-yl)pyridin-2-yl)-2-hydroxypropane-1-sulfonamide]	3.4
